# Test results from patent publication US10894807B2 (Siemens Medical Solutions USA, Inc., priority 2011, dated 2021).
# Molecular target: human PSMA (Homo sapiens (Human), UniProt Q04609)
# Assay: Enzymatic assay for in vitro evaluation of PSMA inhibitors (fluorescent assay of PSMA activity, NAAG substrate, OPA detection of glutamate)
# Assay type: biochemical
# Chain of human PSMA (Q04609 whole entry): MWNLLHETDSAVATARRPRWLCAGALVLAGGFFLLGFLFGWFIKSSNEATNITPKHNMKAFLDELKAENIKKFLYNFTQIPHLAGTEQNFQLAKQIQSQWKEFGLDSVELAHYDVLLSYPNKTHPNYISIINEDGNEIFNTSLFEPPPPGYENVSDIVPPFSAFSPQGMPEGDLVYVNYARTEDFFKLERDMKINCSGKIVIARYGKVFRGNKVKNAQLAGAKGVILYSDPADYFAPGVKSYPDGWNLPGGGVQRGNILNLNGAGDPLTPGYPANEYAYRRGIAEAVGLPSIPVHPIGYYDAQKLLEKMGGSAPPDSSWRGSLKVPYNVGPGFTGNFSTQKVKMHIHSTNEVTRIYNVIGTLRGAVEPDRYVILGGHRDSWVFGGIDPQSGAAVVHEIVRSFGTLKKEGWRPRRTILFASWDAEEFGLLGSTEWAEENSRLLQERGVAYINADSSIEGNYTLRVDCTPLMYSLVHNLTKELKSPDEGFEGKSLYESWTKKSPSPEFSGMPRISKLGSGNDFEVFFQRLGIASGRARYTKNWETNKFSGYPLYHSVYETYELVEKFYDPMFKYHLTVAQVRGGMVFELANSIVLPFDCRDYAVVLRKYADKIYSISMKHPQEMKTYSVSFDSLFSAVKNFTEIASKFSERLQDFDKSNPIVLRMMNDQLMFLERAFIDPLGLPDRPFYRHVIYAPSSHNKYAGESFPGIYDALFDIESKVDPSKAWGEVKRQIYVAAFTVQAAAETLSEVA
Compound,Ki [nM],PSMA Blkg % (1.0 μM) [%]
"O=C(O)CCC(NC(=O)C[C@@H](NC(=O)CCNC(=O)c1cc(C(=O)NCCC(=O)N[C@H](CC(=O)NC(CCC(=O)O)C(=O)O)C(=O)O)cc(-n2cc(CCCF)nn2)c1)C(=O)O)C(=O)O (stereo partly drawn) [P252, (2S,2′S)-2,2′-(((3R,3′R)-3,3′-((3,3′-((5-(4-(3-Fluoropropyl)-1H-1,2,3-triazol-1-yl)isophthaloyl)bis(azanediyl))bis(propanoyl))bis(azanediyl))bis(3-carboxypropanoyl))bis(azanediyl))dipentanedioic Acid]",94,59
"O=C(O)CC[C@H](NC(=O)N[C@@H](Cc1ccc(NC(=O)c2cc(C(=O)O)cc(-n3cc(CCCF)nn3)c2)cc1)C(=O)O)C(=O)O [P253, (S)-2-(3-((S)-1-Carboxy-2-(4-(3-carboxy-5-(4-(3-fluoropropyl)-1H-1,2,3-triazol-1-yl)benzamido)phenyl)ethyl)ureido)pentanedioic Acid]",0.2,96
"O=C(O)CC[C@H](NC(=O)N[C@@H](CCCCNc1nc(-c2cccc(NC(=O)CCOCCOCCOCCOCCNC(=O)Cn3cc(CCCF)nn3)c2)cs1)C(=O)O)C(=O)O [P254, (S)-2-(3-((S)-1-Carboxy-5-(4-(3-(1-(4-(3-fluoropropyl)-1H-1,2,3-triazol-1-yl)-2-oxo-6,9,12,15-tetraoxa-3-azaoctadecanamido)phenyl)thiazol-2-ylamino)pentyl)ureido)-pentanedioic Acid]",0.4,95
"C[C@@](Cc1cccc(NC(=O)CCCn2cc(CCCF)nn2)c1)(NC(=O)N[C@@H](CCC(=O)O)C(=O)O)C(=O)O [P255, (S)-2-(3-((S)-2-Carboxy-1-(3-(4-(4-(3-fluoropropyl)-1H-1,2,3-triazol-1-yl)butanamido)-phenyl)propan-2-yl)ureido)pentanedioic Acid]",,62
"C[C@@](Cc1cccc(NC(=O)Cn2cc(CCCF)nn2)c1)(NC(=O)N[C@@H](CCC(=O)O)C(=O)O)C(=O)O [P256, (S)-2-(3-((S)-2-Carboxy-1-(3-(2-(4-(3-fluoropropyl)-1H-1,2,3-triazol-1-yl)acetamido)-phenyl)propan-2-yl)ureido)pentanedioic Acid]",,27
"O=C(O)CCC(C(=O)O)N1C(=O)N[C@@H](CC2CCN(C(=O)c3ccc(-n4cc(CCCF)nn4)cc3)CC2)C1=O (stereo partly drawn) [P257, 2-((S)-4-((1-(4-(4-(3-Fluoropropyl)-1H-1,2,3-triazol-1-yl)benzoyl)piperidin-4-yl)methyl)-2,5-dioxoimidazolidin-1-yl)pentanedioic Acid]",,5
"NCCOCCOCCOCCOCCn1cc(-c2ccc(C(=O)NCCCC[C@H](NC(=O)N[C@@H](CCC(=O)O)C(=O)O)C(=O)O)cc2)nn1 [P258, (S)-2-(3-((S)-5-(4-(1-(14-Amino-3,6,9,12-tetraoxatetradecyl)-1H-1,2,3-triazol-4-yl)benzamido)-1-carboxypentyl)ureido)pentanedioic Acid]",41,
"O=C(O)CC[C@H](NC(=O)N[C@@H](CCCCNC(=O)c1cc(C(=O)O)cc(-n2cc(CCCF)nn2)c1)C(=O)O)C(=O)O [P259, (S)-2-(3-((S)-1-Carboxy-5-(3-carboxy-5-(4-(3-fluoropropyl)-1H-1,2,3-triazol-1-yl)benzamido)pentyl)ureido)pentanedioic Acid]",,98
"CCN(CC)C(=O)c1cc(C(=O)NCCCC[C@H](NC(=O)N[C@@H](CCC(=O)O)C(=O)O)C(=O)O)cc(-n2cc(CCCF)nn2)c1 [P260, (S)-2-(3-((S)-1-Carboxy-5-(3-(diethylcarbamoyl)-5-(4-(3-fluoropropyl)-1H-1,2,3-triazol-1-yl)benzamido)pentyl)ureido)pentanedioic Acid]",,81
"O=C(O)CC[C@H](NC(=O)N[C@@H](CCCCNC(=O)CC[C@H](NC(=O)Cn1cc(CCCF)nn1)C(=O)NCCCC[C@H](NC(=O)N[C@@H](CCC(=O)O)C(=O)O)C(=O)O)C(=O)O)C(=O)O [P261, (3S,7S,14S,23S,27S)-14-(2-(4-(3-Fluoropropyl)-1H-1,2,3-triazol-1-yl)acetamido)-5,13,17,25-tetraoxo-4,6,12,18,24,26-hexaazanonacosane-1,3,7,23,27,29-hexacarboxylic Acid]",1,98
"O=C(O)CC[C@H](NC(=O)N[C@@H](CCCCNC(=O)N1CCN(C(=O)c2cc(C(=O)O)cc(-n3cc(CCCF)nn3)c2)CC1)C(=O)O)C(=O)O [P262, (S)-2-(3-((S)-1-Carboxy-5-(4-(3-carboxy-5-(4-(3-fluoropropyl)-1H-1,2,3-triazol-1-yl)benzoyl)piperazine-1-carboxamido)pentyl)ureido)pentanedioic Acid]",,96
"O=C(O)CC[C@H](NC(=O)N[C@@H](CCCCNC(=O)N1CCN(C(=O)c2cc(C(=O)N3CCN(C(=O)NCCCC[C@@H](NC(=O)N[C@H](CCC(=O)O)C(=O)O)C(=O)O)CC3)cc(-n3cc(CCCF)nn3)c2)CC1)C(=O)O)C(=O)O [P263, (2S,2′S)-2,2′-(((((1S,1′S)-((4,4′-(5-(4-(3-Fluoropropyl)-1H-1,2,3-triazol-1-yl)-isophthaloyl)bis(piperazine-1,1′-carbonyl))bis(azanediyl))bis(1-carboxypentane-5,1-diyl))bis(azanediyl))bis(carbonyl))bis(azanediyl))dipentanedioic Acid]",1.3,98
"CCN(CC)C(=O)c1cc(C(=O)N2CCN(C(=O)NCCCC[C@H](NC(=O)N[C@@H](CCC(=O)O)C(=O)O)C(=O)O)CC2)cc(-n2cc(CCCF)nn2)c1 [P264, (S)-2-(3-((S)-1-Carboxy-5-(4-(3-(diethylcarbamoyl)-5-(4-(3-fluoropropyl)-1H-1,2,3-triazol-1-yl)benzoyl)piperazine-1-carboxamido)pentyl)ureido)pentanedioic Acid]",,96
"O=C(O)CC[C@H](NC(=O)N[C@@H](CCCCNc1nc(F)ccc1[N+](=O)[O-])C(=O)O)C(=O)O [P265, (S)-2-(3-((S)-1-Carboxy-5-((6-fluoro-3-nitropyridin-2-yl)amino)pentyl)ureido)pentanedioic Acid]",,97
"O=C(O)CC[C@H](NC(=O)N[C@@H](CCCCNC(=O)c1cc(C(=O)Nc2ccc(C[C@H](NC(=O)N[C@@H](CCC(=O)O)C(=O)O)C(=O)O)cc2)cc(-n2cc(CCCF)nn2)c1)C(=O)O)C(=O)O [P267, (S)-2-(3-((S)-1-Carboxy-2-(4-(3-(((S)-5-carboxy-5-(3-((S)-1,3-dicarboxypropyl)ureido)pentyl)carbamoyl)-5-(4-(3-fluoropropyl)-1H-1,2,3-triazol-1-yl)benzamido)phenyl)ethyl)ureido)pentanedioic Acid]",,82
"O=C(O)CC[C@H](NC(=O)N[C@@H](CCCCNC(=O)c1cc(C(=O)N[C@@H](CCC(=O)O)C(=O)O)cc(-n2cc(CCCF)nn2)c1)C(=O)O)C(=O)O [P268, (S)-2-(3-((S)-1-Carboxy-5-(3-(((S)-1,3-dicarboxypropyl)carbamoyl)-5-(4-(3-fluoropropyl)-1H-1,2,3-triazol-1-yl)benzamido)pentyl)ureido)pentanedioic Acid]",,68
"O=C(O)CC[C@H](NC(=O)N[C@@H](CCCCNc1ccc([N+](=O)[O-])c(F)n1)C(=O)O)C(=O)O [P269, (S)-2-(3-((S)-1-Carboxy-5-((6-fluoro-5-nitropyridin-2-yl)amino)pentyl)ureido)pentanedioic Acid]",,66
"O=C(O)CC[C@H](NC(=O)N[C@@H](CCCCNc1cc(NCCOCCn2cc(CCCF)nn2)ncn1)C(=O)O)C(=O)O [P271, (S)-2-(3-((S)-1-Carboxy-5-((6-((2-(2-(4-(3-fluoropropyl)-1H-1,2,3-triazol-1-yl)ethoxy)ethyl)amino)pyrimidin-4-yl)amino)pentyl)ureido)pentanedioic Acid]",0.8,98
"O=C(O)CC[C@H](NC(=O)N[C@@H](CC1CCN(C(=O)c2cc(C(=O)N3CCC(C[C@H](NC(=O)N[C@@H](CCC(=O)O)C(=O)O)C(=O)O)CC3)cc(-n3cc(CCCF)nn3)c2)CC1)C(=O)O)C(=O)O [P272, (S)-2-(3-((S)-1-Carboxy-2-(1-(3-(4-((S)-2-carboxy-2-(3-((S)-1,3-dicarboxypropyl)-ureido)ethyl)piperidine-1-carbonyl)-5-(4-(3-fluoropropyl)-1H-1,2,3-triazol-1-yl)benzoyl)piperidin-4-yl)ethyl)ureido)pentanedioic Acid]",2.5,97
"O=C(O)CC[C@H](NC(=O)NC(CCCCNc1nc(NCCN(CCNC(=O)Cn2cc(CCCF)nn2)CCNc2ccc([N+](=O)[O-])c(NCCCCC(NC(=O)N[C@@H](CCC(=O)O)C(=O)O)C(=O)O)n2)ccc1[N+](=O)[O-])C(=O)O)C(=O)O (stereo partly drawn) [P273, (2S,2′S)-2,2′-(((((1S,1′S)-((6,6′-((((2-(2-(4-(3-Fluoropropyl)-1H-1,2,3-triazol-1-yl)acetamido)ethyl)azanediyl)bis(ethane-2,1-diyl))bis(azanediyl))bis(3-nitropyridine-6,2-diyl))bis(azanediyl))bis(1-carboxypentane-5,1-diyl))bis(azanediyl))bis(carbonyl))bis(azanediyl))dipentanedioic Acid]",0.2,97
"O=C(O)CC[C@H](NC(=O)N[C@@H](CCCCNC(=O)CC(CC(=O)NCCCC[C@H](NC(=O)N[C@@H](CCC(=O)O)C(=O)O)C(=O)O)NC(=O)Cn1cc(CCCF)nn1)C(=O)O)C(=O)O [P276, (3S,7S,23S,27S)-15-(2-(4-(3-Fluoropropyl)-1H-1,2,3-triazol-1-yl)acetamido)-5,13,17,25-tetraoxo-4,6,12,18,24,26-hexaazanonacosane-1,3,7,23,27,29-hexacarboxylic Acid]",1.3,
"O=C(O)CC[C@H](NC(=O)N[C@@H](CCc1nc(-c2ccc([N+](=O)[O-])cc2)co1)C(=O)O)C(=O)O [P279, (S)-2-(3-((S)-1-Carboxy-3-(4-(4-nitrophenyl)oxazol-2-yl)propyl)ureido)pentanedioic Acid]",1.6,
